Source: patent US20040014721A1, “Method for using tethered bis(polyhydroxyphenyls) and O-alkyl derivatives thereof in treating inflammatory conditions of the central nervous system” (Oklahoma Medical Research Foundation, priority 2002, published 2004)
Read-outs that look alike come from different tables or passages of the source.

Assays:
[1] = tested on: TNFα-Stimulated NO2^− Production in EOC-20 Cells; assay: TNFα-stimulated nitrite (NO2−) production in EOC-20 microglial cells, Griess assay; type: cell-based, mouse
Method: Cells were cultured in 24 well plates until confluent then treated with test agent, which was dissolved at 100× final concentration in dimethylsulfoxide (DMSO), or with vehicle only. Thirty minutes after treatment with test agent, cells were treated with 10 ng/mL recombinant mouse TNFα (Pharmingen, San Diego, Calif. USA). […] Each compound was tested at 100 μM, 20 μM, 4 μM, 0.8 μM and 0 μM in the presence of TNFα. Four wells of cells were used for each concentration of test agent.
(§1) Lower IC50 values indicate improved efficacy. FIG. 2 illustrates the principle of the measurement using NDGA as an example test agent. In order to determine viability, cell culture medium was replaced with phenol-free DMEM (Gibco) containing 20 μL/mL of MTT viability reagent (Promega). […] Control cells were taken to indicate 100% viability and intermediate values of MTT reduction were scaled to percentage of control. For each compound, an LD50 value was determined by extrapolation through sublethal concentrations. This value represents the concentration that reduced the MTT viability parameter by 50%.

[2] = tested on: EOC-20 cells
Method: as §1

[3] = Mus musculus, 24 h, Table III, 10 ng/mL TNFα, 24 hr, by interpolation, read-out: IC50
[4] = Table III, 10 ng/mL TNFα, 24 hr, by interpolation
[5] = Table III, MTT viability, by extrapolation through sublethal concentrations
[6] = Table III, 10 ng/mL TNFα, 24 hr, by interpolation, read-out: IC50
[7] = Mus musculus, Table III, 10 ng/mL TNFα, 24 hr, by interpolation, read-out: IC50
[8] = Mus musculus, Table V, read-out: IC50
[9] = Table V, * obtained by linear extrapolation from points ≦100 μM
[10] = Mus musculus, Table V, * obtained by linear extrapolation from points ≦100 μM, read-out: IC50

COc1ccc(-c2coc3cc(O)ccc3c2=O)cc1
IC50 [1, 3]: 106 µM | LD50 ([2]; mouse): 126 μm

O=C(O)CCCC[C@@H]1CCSS1 (racemic) [Lipoic acid]
IC50 [1, 4]: Inactive

CC(C)(C)[N+]([O-])=Cc1ccccc1O [2-OH-PBN]
IC50 [1, 4]: Inactive | LD50 [2, 5]: nontoxic

O=c1c(O)c(-c2ccccc2)oc2cc(O)cc(O)c12 [3,5,7-trihydroxy-flavone (galangin), 3,5,7-trihydroxy-flavone]
IC50 [1, 3]: 41 µM | LD50 ([2]; mouse): 58 μm

CC(C)(C)[N+]([O-])=Cc1cccc(O)c1 [3-OH-PBN]
IC50 [1, 4]: Inactive | LD50 [2, 5]: nontoxic

O=c1c(O)c(-c2ccccc2)oc2ccccc12 [3-OH-flavone]
IC50 [1, 6]: 70 µM | LD50 [2]: 125 μm

CC(C)(C)[N+]([O-])=Cc1ccc(O)cc1 [4-OH-PBN]
IC50 [1, 4]: Inactive | LD50 [2, 5]: nontoxic

O=c1cc(-c2ccc(O)cc2)oc2cc(O)cc(O)c12 [4′,5,7-trihydroxy-flavone (apigenin), 4′,5,7-trihydroxy-flavone]
IC50 [1, 3]: 55 µM | LD50 [2, 5]: 87 μm

O=c1c(-c2ccc(O)cc2)coc2cc(O)cc(O)c12 [4′,5,7-trihydroxy-isoflavone (genistein), 4′,5,7-trihydroxy-isoflavone]
IC50 [1, 3]: 46 µM | LD50 [2, 5]: nontoxic

COc1cc(O)c2c(=O)c(-c3ccc(O)cc3)coc2c1 [4′,5-dihydroxy-7-methoxy-isoflavone]
IC50 [1, 7]: 120 µM | LD50 [2, 5]: nontoxic

COc1ccc(-c2coc3cc(O)cc(O)c3c2=O)cc1 [4′-methoxy-5,7-dihydroxyisoflavone]
IC50 [1, 3]: 49 µM | LD50 ([2]; mouse): 112 μm

O=c1cc(-c2ccccc2)oc2cc(O)ccc12 [7-OH-flavone, 7-OH-flavone]
IC50 [1, 6]: 65 µM | LD50 [2, 5]: 125 μm

COc1cccc2c1cc([N+](=O)[O-])c1c(C(=O)O)cc3c(c12)OCO3 [Aristolochic acid]
IC50 ([1]; Mus musculus): 29 µM | LD50 ([2]; Table V): 100 µM

c1ccc2c(c1)ccc1c3ccccc3ccc21 [Chrysene]
IC50 [1, 4]: Inactive | LD50 [2, 5]: nontoxic

O=c1oc2c(O)c(O)cc3c(=O)oc4c(O)c(O)cc1c4c23 [Ellagic acid]
IC50 [1, 3]: 110 µM | LD50 [2]: nontoxic

O=c1cc(-c2ccccc2)oc2ccccc12 [Flavone]
IC50 [1, 3]: 60 µM | LD50 [2, 5]: 7 μm

CC(C)Cc1ccc(C(C)C(=O)O)cc1 (stereo not drawn) [Ibuprofen]
activity against TNFα-stimulated nitrite production [1]: weak activity | IC50 [1, 4]: Inactive | IC50 ([1]; Table V): Inactive

COc1ccc2c(c1)c(CC(=O)O)c(C)n2C(=O)c1ccc(Cl)cc1 [Indomethacin]
activity against TNFα-stimulated nitrite production [1]: weak activity | IC50 [1, 3]: 61 µM | IC50 [1, 8]: 61 µM | LD50 [2, 5]: 124 μm | LD50 [2, 9]: 124* μM

CC(C)c1ccc2c(c1)c(SC(C)(C)C)c(CC(C)(C)C(=O)O)n2Cc1ccc(Cl)cc1 [MK-886]
IC50 ([1]; Table V, read-out: IC50): 41 µM | LD50 [2]: 40 µM

CN(C)c1ccc(O)c2c1C[C@H]1C[C@H]3[C@H](N(C)C)C(O)=C(C(N)=O)C(=O)[C@@]3(O)C(O)=C1C2=O [Minocycline]
IC50 [1, 3]: 49 µM

C[C@H](Cc1ccc(O)c(O)c1)[C@@H](C)Cc1ccc(O)c(O)c1 [NDGA (natural), nordihydroguaiaretic acid]
IC50 [1, 3]: 3.1 µM | IC50 [1, 8]: 3 µM

C[C@H](Cc1ccc(O)c(O)c1)[C@@H](C)Cc1ccc(O)c(O)c1 [NDGA (synthetic), nordihydroguaiaretic acid]
IC50 [1, 6]: 4 µM | IC50 ([1]; Table V, read-out: IC50): 4 µM

CC(=O)Oc1ccc(CC(C)C(C)Cc2ccc(OC(C)=O)c(OC(C)=O)c2)cc1OC(C)=O (stereo not drawn) [NDGA tetraacetyl ester]
IC50 ([1]; Table V, read-out: IC50): 5 µM | LD50 ([2]; Table V): Nontoxic

CS(=O)(=O)Nc1ccc([N+](=O)[O-])cc1OC1CCCCC1 [NS-398]
activity against TNFα-stimulated nitrite production [1]: essentially inactive | IC50 [1, 10]: 108 µM | LD50 [2, 9]: 129* μM

CS(=O)(=O)Nc1ccc([N+](=O)[O-])cc1Oc1ccccc1 [Nimesulide]
IC50 [1, 8]: 20 µM

CN(C)[C@@H]1C(O)=C(C(N)=O)C(=O)[C@@]2(O)C(O)=C3C(=O)c4c(O)cccc4[C@@](C)(O)[C@H]3[C@H](O)[C@@H]12 [Oxyletracycline]
IC50 [1, 6]: 64 µM

COc1ccc(/C=C/c2cc(O)cc(O[C@@H]3O[C@H](CO)[C@@H](O)[C@H](O)[C@H]3O)c2)cc1O [Rhapontin (natural, rhubarb), Rhapontin]
IC50 [1, 4]: Inactive | LD50 [2]: nontoxic

O=C(/C=C/c1ccc(O)c(O)c1)O[C@H](Cc1ccc(O)c(O)c1)C(=O)O [Rosemarinic acid]
IC50 [1, 3]: 139 µM | LD50 [2]: nontoxic

C[S+]([O-])c1ccc(-c2nc(-c3ccncc3)c(-c3ccc(F)cc3)[nH]2)cc1 (stereo not drawn) [SB203580]
LD50 [2, 5]: 100 μm

c1cc2c(cc1[C@H]1OC[C@H]3[C@@H]1CO[C@@H]3c1ccc3c(c1)OCO3)OCO2 [Sesamin, sesamin]
IC50 [1, 8]: 42 µM | LD50 ([2]; Table V): Nontoxic

CCOc1ccc(CC(C)C(C)Cc2ccc(OCC)c(OCC)c2)cc1OCC (stereo not drawn) [Tetra-ethyl ether of NDGA (synthetic), Tetra-ethyl ether of NDGA]
IC50 ([1]; read-out: IC50): 0.8 µM

CN(C)[C@@H]1C(O)=C(C(N)=O)C(=O)[C@@]2(O)C(O)=C3C(=O)c4c(O)cccc4[C@@](C)(O)[C@H]3C[C@@H]12 [Tetracycline]
IC50 [1, 7]: 85 µM | LD50 [2]: nontoxic

C(=C\c1ccccc1)/c1ccccc1 [Trans-stilbene, Trans- stilbene]
IC50 [1, 4]: Inactive | LD50 [2]: nontoxic

N#CC(C#N)=C(N)/C(C#N)=C/c1cc(O)c(O)c(O)c1 [Tyrphostin 51]
IC50 [1, 4]: Inactive | LD50 [2, 5]: nontoxic

N#CC(C#N)=Cc1ccc([N+](=O)[O-])c(O)c1 [Tyrphostin AG126]
IC50 [1, 6]: 18 µM | LD50 [2, 5]: 150 μm

CC(c1cc2ccccc2s1)N(O)C(N)=O (stereo not drawn) [Zileuton]
activity against TNFα-stimulated nitrite production [1]: approximately as effective as minocycline | IC50 [1, 10]: 105 µM | LD50 [2]: Nontoxic

Cc1c(C)c2c(c(C)c1O)CC[C@@](C)(CCC[C@H](C)CCC[C@H](C)CCCC(C)C)O2 [alpha tocopherol]
IC50 [1, 4]: Inactive | LD50 [2]: nontoxic

O=C(/C=C/c1ccc(O)c(O)c1)c1ccc(O)cc1O [butein (2′,4′,3,4-tetrahydroxychalcone), 2′,4′,3,4-tetrahydroxychalcone]
IC50 [1, 3]: 5.1 µM | LD50 ([2]; mouse): 77 μm

COC1=C(OC)C(=O)C(C/C=C(\C)CC/C=C(\C)CC/C=C(\C)CC/C=C(\C)CC/C=C(\C)CC/C=C(\C)CC/C=C(\C)CC/C=C(\C)CC/C=C(\C)CCC=C(C)C)=C(C)C1=O [coenzyme O]
IC50 [1, 4]: Inactive | LD50 [2]: nontoxic

COc1cc(/C=C/C(=O)CC(=O)/C=C/c2ccc(OC(C)=O)c(OC)c2)ccc1OC(C)=O [curcumin diacetyl ester]
IC50 ([1]; Table V, read-out: IC50): 14 µM | LD50 ([2]; Table V): Nontoxic

C[C@@H]1C(=O)O[C@H]2C[C@@]34[C@H]5C[C@@H](C(C)(C)C)[C@]36[C@@H](OC(=O)[C@@H]6O)O[C@@]4(C(=O)O5)[C@]21O [gingkolide A]
IC50 [1, 4]: Inactive | LD50 [2, 5]: nontoxic

C[C@@H]1C(=O)O[C@H]2[C@@H](O)[C@@]34[C@H]5C[C@@H](C(C)(C)C)[C@]36[C@@H](OC(=O)[C@@H]6O)O[C@@]4(C(=O)O5)[C@@]12O [gingkolide B]
IC50 [1, 4]: Inactive | LD50 [2, 5]: nontoxic

CC(C)(C)/[N+]([O-])=C/c1ccccc1 [phenyl N tert-butyl-nitrone (PBN), phenyl N tert-butyl-nitrone]
IC50 [1, 6]: 100 µM | LD50 [2, 5]: nontoxic

S=C(S)N1CCCC1 [pyrollidine dithiocarbamate (PDTC), pyrollidine dithiocarbamate]
IC50 [1, 6]: 51 µM | LD50 [2, 5]: 90 μm

Oc1ccc(C#CC/C=C/c2ccc(O)c(O)c2)cc1O [rooperol]
IC50 ([1]; read-out: IC50): 25 µM | cytotoxicity [2]: nontoxic
